# Measured values reported in ChEMBL document CHEMBL1136185, “Linearized and truncated microcystin analogues as inhibitors of protein phosphatases 1 and 2A” (Bioorg Med Chem Lett, 2003).
# Molecular target: T1, Serine-threonine protein phosphatase 2A regulatory subunit (Gallus gallus, UniProt Q8AWE3)
# T1 sequence (Q8AWE3 whole entry): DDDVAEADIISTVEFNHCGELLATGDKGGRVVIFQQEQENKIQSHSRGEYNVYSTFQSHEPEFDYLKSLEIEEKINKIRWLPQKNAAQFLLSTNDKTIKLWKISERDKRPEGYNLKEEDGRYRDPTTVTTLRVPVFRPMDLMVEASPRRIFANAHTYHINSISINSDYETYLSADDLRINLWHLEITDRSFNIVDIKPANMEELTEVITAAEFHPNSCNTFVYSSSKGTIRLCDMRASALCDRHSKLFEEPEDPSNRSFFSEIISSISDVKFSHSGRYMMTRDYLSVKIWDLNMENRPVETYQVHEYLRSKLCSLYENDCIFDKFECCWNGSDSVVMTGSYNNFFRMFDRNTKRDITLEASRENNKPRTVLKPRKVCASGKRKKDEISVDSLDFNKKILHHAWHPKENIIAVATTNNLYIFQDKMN
# Test: Inhibitory concentration required against protein phosphatase 2A using pNPP assay
row,SMILES,IC50
1,CO[C@@H](Cc1ccccc1)[C@@H](C)/C=C(C)/C=C/[C@H](NC(C)=O)[C@H](C)C(=O)N[C@H](CCC(=O)N(C)CC(=O)N[C@H](C)C(=O)O)C(=O)O,135 µM
2,C=C(C(=O)N[C@H](C)C(=O)N[C@@H](CC(C)C)C(=O)O)N(C)C(=O)CC[C@@H](NC(=O)[C@@H](C)[C@H](/C=C/C(C)=C/[C@H](C)[C@H](Cc1ccccc1)OC)NC(C)=O)C(=O)O,16 µM
3,CO[C@@H](Cc1ccccc1)[C@@H](C)/C=C(C)/C=C/[C@H](NC(C)=O)[C@H](C)C(=O)N[C@H](CCC(=O)N(C)CC(=O)N[C@H](C)C(=O)N[C@@H](CC(C)C)C(=O)O)C(=O)O,17 µM
4,COC(=O)[C@@H](CCC(=O)N(C)C)NC(=O)[C@@H](C)[C@H](/C=C/C(C)=C/[C@H](C)[C@H](Cc1ccccc1)OC)NC(C)=O,> 100 µM
5,CO[C@@H](Cc1ccccc1)[C@@H](C)/C=C(C)/C=C/[C@H](NC(C)=O)[C@H](C)C(=O)N[C@H](CCC(=O)N(C)C)C(=O)O,20 µM
6,CO[C@@H](Cc1ccccc1)[C@@H](C)/C=C(C)/C=C/[C@H](N)[C@H](C)C(=O)N[C@H](CCC(=O)N(C)CC(=O)N[C@H](C)C(=O)O)C(=O)O,270 µM
